In article PMC8780855, “Synthesis, Crystallographic, Quantum Chemical, Antitumor, and Molecular Docking/Dynamic Studies of 4-Hydroxycoumarin-Neurotransmitter Derivatives” (International Journal of Molecular Sciences, 2022):
pIC50: −log10 of the molar value. Like-named read-outs stand apart in the source and are kept apart here.

What was measured:
HeLa cells = experiment: MTT cytotoxicity assay, HeLa; format: cell-based, human; settings: for pIC50: Homo sapiens, HeLa, MTT; for Selectivity index HeLa/MRC-5 24 h: SI between HeLa and MRC-5, 24 h; for Selectivity index HeLa/MRC-5 72 h: SI between HeLa and MRC-5, 72 h
Method: (§1) The in vitro cytotoxic activity of the tested compounds was investigated on four model systems: human colorectal carcinoma HCT-116, human breast cancer MDA-MB-231, human cervical cancer HeLa, and human healthy fibroblast MRC-5 cell lines. The cell lines of low passages were purchased from ECACC and were cultivated in Dulbecco’s Modified Eagle Medium (DMEM; Sigma-Aldrich, Germany, D5796) supplemented with 10% fetal bovine serum (Sigma-Aldrich, F4135-500ML) and 1% penicillin/streptomycin (Sigma-Aldrich, P4333-100ML) in 75 cm^2 culture flasks. The cells were harvested in an incubator under a humidified atmosphere with 5% CO2 at a physiological temperature of 37 °C, and after a few passages and a confluence of about 90%, the cells were used for the MTT assay.
(§2) The capacity of tested compounds to prevent the growth of four different cell lines was assessed by a standardized MTT assay (Laboratory for Bioengineering protocol CB-005, Kragujevac, Serbia), based on spectrophotometric measurement of the reduction of 3-(4,5-dimethylthiazol-2-yl)-2,5-diphenyltetrazolium bromide (MTT, Acros Organics, NJ, USA 158990010) to purple formazan crystals subsequently dissolved in dimethyl sulfoxide (DMSO; Fisher Chemical, IL, USA D/4121/PB15). A number of 1 × 10^4 cells per well (in 96-well microplates) were seeded and maintained in an incubator for 24 h to allow for cell attachment. After the incubation period, the cells were treated with the investigated compounds in the concentration range from 0.1 to 500 µM dissolved in DMEM. Cytotoxic effect was calculated 24 and 72 h from treatment by determination of the number of viable cells. The absorbance measured at 550 nm and was performed on a microplate reader (Rayto 2100C, China). The cytotoxicity was derived as the ratio of the absorbance of the treated cells divided with the absorbance of negative control (untreated cells) and multiplied by 100 to obtain the percentage of the viable cells.

HCT-116 cells = experiment: MTT cytotoxicity assay, HCT-116; format: cell-based, human; settings: for pIC50: Homo sapiens, MTT; for Selectivity index HCT-116/MRC-5 24 h: SI between HCT-116 and MRC-5, 24 h; for Selectivity index HCT-116/MRC-5 72 h: SI between HCT-116 and MRC-5, 72 h
Method: as §1, §2

MDA-MB-231 cells = experiment: MTT cytotoxicity assay, MDA-MB-231; format: cell-based; settings: Homo sapiens
Method: as §1, §2

MRC-5 cells = experiment: MTT cytotoxicity assay, MRC-5 healthy fibroblasts; format: cell-based; settings: Homo sapiens
Method: as §1, §2

[1] = read-out: IC50 HeLa 24 h, 24 h exposure
[2] = 72 h exposure, read-out: IC50 HeLa 72 h
[3] = read-out: IC50 HCT-116 24 h, HCT-116, 24 h exposure
[4] = HCT-116, 72 h exposure, read-out: IC50 HCT-116 72 h
[5] = MDA-MB-231, 72 h exposure, read-out: IC50 MDA-MB-231 72 h
[6] = read-out: IC50 MDA-MB-231 24 h, MDA-MB-231, 24 h exposure
[7] = MRC5, MRC-5, 72 h exposure, read-out: IC50 MRC-5 72 h
[8] = MRC5, read-out: IC50 MRC-5 24 h, MRC-5, 24 h exposure

## C/C(NCCc1ccc(O)cc1)=C1\C(=O)Oc2ccccc2C1=O [L1, (E)-3-(1-((4-hydroxyphenethyl)amino)ethylidene)chromane-2,4-dione]
HeLa cells; [1]
  pIC50: < 3.30
HeLa cells; [2]
  pIC50: 3.34
HeLa cells
  Selectivity index HeLa/MRC-5 24 h: 1
  Selectivity index HeLa/MRC-5 72 h: 1.1
HCT-116 cells; [3]
  pIC50: < 3.30
HCT-116 cells; [4]
  pIC50: 3.77
HCT-116 cells
  Selectivity index HCT-116/MRC-5 24 h: 1
  Selectivity index HCT-116/MRC-5 72 h: 2.9
MDA-MB-231 cells; [5]
  pIC50: < 3.30
MDA-MB-231 cells; [6]
  pIC50: < 3.30
MRC-5 cells; [7]
  pIC50: < 3.30
MRC-5 cells; [8]
  pIC50: < 3.30

## C/C(NCC(O)c1ccc(O)c(O)c1)=C1\C(=O)Oc2ccccc2C1=O (stereo not drawn) [L3, (E)-3-(1-((2-(3,4-dihydroxyphenyl)-2-hydroxyethyl)amino)ethylidene)chromane-2,4-dione]
HeLa cells; [1]
  pIC50: < 3.30
HeLa cells; [2]
  pIC50: 3.31
HeLa cells
  Selectivity index HeLa/MRC-5 24 h: 1
  Selectivity index HeLa/MRC-5 72 h: 1
HCT-116 cells; [3]
  pIC50: < 3.30
HCT-116 cells; [4]
  pIC50: 3.97
HCT-116 cells
  Selectivity index HCT-116/MRC-5 24 h: 1
  Selectivity index HCT-116/MRC-5 72 h: 4.7
MDA-MB-231 cells; [5]
  pIC50: < 3.30
MDA-MB-231 cells; [6]
  pIC50: < 3.30
MRC-5 cells; [7]
  pIC50: < 3.30
MRC-5 cells; [8]
  pIC50: < 3.30

## CC(NCCc1ccc(O)c(O)c1)=C1C(=O)Oc2ccccc2C1=O [L5, 3-(1-((3,4-dihydroxyphenethyl)amino)ethylidene)-chroman-2,4-dione]
HeLa cells; [1]
  pIC50: < 3.30
HeLa cells; [2]
  pIC50: 4.04
HeLa cells
  Selectivity index HeLa/MRC-5 24 h: 1
  Selectivity index HeLa/MRC-5 72 h: 5.4
HCT-116 cells; [3]
  pIC50: < 3.30
HCT-116 cells; [4]
  pIC50: 4.14
HCT-116 cells
  Selectivity index HCT-116/MRC-5 24 h: 1
  Selectivity index HCT-116/MRC-5 72 h: 6.8
MDA-MB-231 cells; [5]
  pIC50: < 3.30
MDA-MB-231 cells; [6]
  pIC50: < 3.30
MRC-5 cells; [7]
  pIC50: < 3.30
MRC-5 cells; [8]
  pIC50: < 3.30

## C/C(NCC(O)c1ccc(O)cc1)=C1\C(=O)Oc2ccccc2C1=O (stereo not drawn) [L2, (E)-3-(1-((2-hydroxy-2-(4-hydroxyphenyl)ethyl)amino)ethylidene)chromane-2,4-dione]
HeLa cells; [1]
  pIC50: < 3.30
HeLa cells; [2]
  pIC50: 3.69
HeLa cells
  Selectivity index HeLa/MRC-5 24 h: 1
  Selectivity index HeLa/MRC-5 72 h: 2.4
HCT-116 cells; [3]
  pIC50: < 3.30
HCT-116 cells; [4]
  pIC50: 3.61
HCT-116 cells
  Selectivity index HCT-116/MRC-5 24 h: 1
  Selectivity index HCT-116/MRC-5 72 h: 2.0
MDA-MB-231 cells; [5]
  pIC50: < 3.30
MDA-MB-231 cells; [6]
  pIC50: < 3.30
MRC-5 cells; [7]
  pIC50: < 3.30
MRC-5 cells; [8]
  pIC50: < 3.30

## COc1cc(CCN/C(C)=C2/C(=O)Oc3ccccc3C2=O)ccc1O [L4, (E)-3-(1-((4-hydroxy-3-methoxyphenethyl)amino)ethylidene)chromane-2,4-dione]
HeLa cells; [1]
  pIC50: < 3.30
HeLa cells; [2]
  pIC50: 3.82
HeLa cells
  Selectivity index HeLa/MRC-5 24 h: 1
  Selectivity index HeLa/MRC-5 72 h: 3.3
HCT-116 cells; [3]
  pIC50: < 3.30
HCT-116 cells; [4]
  pIC50: 4.13
HCT-116 cells
  Selectivity index HCT-116/MRC-5 24 h: 1
  Selectivity index HCT-116/MRC-5 72 h: 6.8
MDA-MB-231 cells; [5]
  pIC50: < 3.30
MDA-MB-231 cells; [6]
  pIC50: < 3.30
MRC-5 cells; [7]
  pIC50: < 3.30
MRC-5 cells; [8]
  pIC50: < 3.30
